From ChEMBL document CHEMBL5375986, “Discovery of Lead 2-Thiazolylhydrazones with Broad-Spectrum and Potent Antifungal Activity” (J Med Chem, 2023)
In brackets after ≈: the same amount, converted by molar mass.

How the values were obtained:
Cryptococcus neoformans [1] = assay: Antifungal activity against Cryptococcus neoformans ATCC 24067 assessed as inhibition of fungal growth incubated for 24 to 48 hrs by CLSI based broth microdilution method; assay type: functional; details: time 24-48 hrs
[2] = Antifungal activity against Cryptococcus gattii ATCC 24065 assessed as inhibition of fungal growth incubated for 24 to 48 hrs by CLSI protocol based broth microdilution method; assay type: functional, Cryptococcus gattii VGI; details: time 24-48 hrs
Candida albicans = assay: Antifungal activity against Candida albicans SC5314 assessed as inhibition of fungal growth incubated for 24 to 48 hrs by CLSI protocol based broth microdilution method; assay type: functional; details: time 24-48 hrs
Pichia kudriavzevii = assay: Antifungal activity against Candida krusei ATCC 20298 assessed as inhibition of fungal growth incubated for 24 to 48 hrs by CLSI protocol based broth microdilution method; assay type: functional; details: time 24-48 hrs
Candida tropicalis = assay: Antifungal activity against Candida tropicalis ATCC 750 assessed as inhibition of fungal growth incubated for 24 to 48 hrs by CLSI protocol based broth microdilution method; assay type: functional; details: time 24-48 hrs
[Candida] auris = Antifungal activity against Candida auris COLO 01 assessed as inhibition of fungal growth incubated for 24 to 48 hrs by CLSI protocol based broth microdilution method; assay type: functional; details: Candidozyma auris, time 24-48 hrs
Cryptococcus neoformans [3] = assay: Antifungal activity against Cryptococcus neoformans assessed as inhibition of fungal growth; assay type: functional
[4] = Antifungal activity against Cryptococcus gattii VGI assessed as inhibition of fungal growth; assay type: functional
Nakaseomyces glabratus = assay: Antifungal activity against Candida glabrata ATCC 2001 assessed as inhibition of fungal growth incubated for 24 to 48 hrs by CLSI protocol based broth microdilution method; assay type: functional; details: time 24-48 hrs
Candida parapsilosis = assay: Antifungal activity against Candida parapsilosis ATCC 22019 assessed as inhibition of fungal growth incubated for 24 to 48 hrs by CLSI protocol based broth microdilution method; assay type: functional; details: Lodderomyces parapsilosis, time 24-48 hrs
[5] = Cytotoxicity against human PBMC cells assessed as inhibition of cell growth incubated for 24 to 48 hrs by MTT assay; assay type: toxicity, cell-based

| MIC (Cryptococcus neoformans [1]) [µM] | MIC [2] [µM] | MIC (Candida albicans) [µM] | MIC (Pichia kudriavzevii) [µM] | MIC (Candida tropicalis) [µM] | MIC ([Candida] auris) [µM] | MIC (Cryptococcus neoformans [3]) [µM] | MIC [4] [µM] | MIC (Nakaseomyces glabratus) [µM] | MIC (Candida parapsilosis) [µM] | Structure (SMILES) | IC50 [5] [µM] |
| --- | --- | --- | --- | --- | --- | --- | --- | --- | --- | --- | --- |
| > 125 | > 125 | 57.6 (≈ 15.6 µg/mL) | 28.8 (≈ 7.81 µg/mL) | > 125 | 57.6 (≈ 15.6 µg/mL) | – | – | – | – | CCOC(=O)Cc1csc(NN=C(C)C(=O)O)n1 | – |
| – | – | – | – | – | – | 0.45 (≈ 0.131 µg/mL) | 0.9 (≈ 0.262 µg/mL) | – | – | COc1ccc(-c2csc(NN=C(C)CCO)n2)cc1 | – |
| 0.7 (≈ 0.212 µg/mL) | 0.3 (≈ 0.091 µg/mL) | 6.4 (≈ 1.94 µg/mL) | 6.4 (≈ 1.94 µg/mL) | 51.4 (≈ 15.6 µg/mL) | 3.2 (≈ 0.971 µg/mL) | – | – | – | – | C/C(CCC(=O)O)=N\Nc1nc(-c2ccc(C)cc2)cs1 | – |
| – | – | 26.8 (≈ 7.81 µg/mL) | 56.6 (≈ 16.5 µg/mL) | 56.6 (≈ 16.5 µg/mL) | 13.4 (≈ 3.9 µg/mL) | – | – | – | – | COc1ccc(-c2csc(N/N=C(\C)C(=O)O)n2)cc1 | – |
| 84.9 (≈ 31.3 µg/mL) | 84.9 (≈ 31.3 µg/mL) | 84.9 (≈ 31.3 µg/mL) | 10.6 (≈ 3.9 µg/mL) | 21.2 (≈ 7.81 µg/mL) | 21.2 (≈ 7.81 µg/mL) | – | – | 21.2 (≈ 7.81 µg/mL) | 84.9 (≈ 31.3 µg/mL) | CCOC(=O)/C(C)=N/Nc1nc(-c2ccc(Br)cc2)cs1 | – |
| > 125 | > 125 | > 125 | > 125 | > 125 | > 125 | – | – | > 125 | > 125 | CCOC(=O)/C(C)=N/Nc1nc(-c2ccc(OC)cc2)cs1 | – |
| – | – | – | – | – | – | – | – | – | – | Cc1ccc(NC(=O)c2ccc(CN3CCN(C)CC3)cc2)cc1Nc1nccc(-c2cccnc2)n1 [IMATINIB] | 159 |
| – | – | 29.9 (≈ 7.81 µg/mL) | 29.9 (≈ 7.81 µg/mL) | 59.8 (≈ 15.6 µg/mL) | 29.9 (≈ 7.81 µg/mL) | – | – | – | – | C/C(=N\Nc1nc(-c2ccccc2)cs1)C(=O)O | – |
| 3 (≈ 0.971 µg/mL) | 1.5 (≈ 0.486 µg/mL) | 1.5 (≈ 0.486 µg/mL) | 1.5 (≈ 0.486 µg/mL) | 6 (≈ 1.94 µg/mL) | 0.7 (≈ 0.227 µg/mL) | – | – | 96.5 (≈ 31.2 µg/mL) | 6 (≈ 1.94 µg/mL) | C/C(CCC(=O)O)=N\Nc1nc(-c2ccc(Cl)cc2)cs1 | – |
| – | – | – | – | – | 0.1 (≈ 0.109 µg/mL) | – | – | – | – | CC[C@H](C)C[C@H](C)CCCCCCCCC(=O)N[C@H]1C[C@@H](O)[C@@H](NCCN)NC(=O)[C@@H]2[C@@H](O)CCN2C(=O)[C@H]([C@H](O)CCN)NC(=O)[C@H]([C@H](O)[C@@H](O)c2ccc(O)cc2)NC(=O)[C@@H]2C[C@@H](O)CN2C(=O)[C@H]([C@@H](C)O)NC1=O [CASPOFUNGIN] | – |
| > 125 | > 125 | > 125 | 102 (≈ 31.3 µg/mL) | > 125 | 50.8 (≈ 15.6 µg/mL) | – | – | > 125 | > 125 | CCOC(=O)C(C)=NNc1nc(-c2ccc(F)cc2)cs1 | – |
| – | – | – | – | – | – | – | – | – | – | Nc1ccn([C@@H]2O[C@H](CO)[C@@H](O)[C@@H]2O)c(=O)n1 [CYTARABINE] | 181 |
| > 125 | > 125 | > 125 | > 125 | 104 (≈ 31.3 µg/mL) | > 125 | – | – | > 125 | > 125 | CCOC(=O)/C(C)=N\Nc1nc(C)c(C(=O)OCC)s1 | – |
| 72.9 (≈ 28.7 µg/mL) | 72.9 (≈ 28.7 µg/mL) | 39.8 (≈ 15.7 µg/mL) | 2.5 (≈ 0.983 µg/mL) | 79.7 (≈ 31.4 µg/mL) | 19.9 (≈ 7.83 µg/mL) | – | – | > 125 | 19.9 (≈ 7.83 µg/mL) | CCN1CCCC(/C=N/Nc2nc(-c3ccc(Br)cc3)cs2)C1 (centres undefined) | – |
| – | – | 14.2 (≈ 3.91 µg/mL) | 28.4 (≈ 7.82 µg/mL) | 114 (≈ 31.3 µg/mL) | 14.2 (≈ 3.91 µg/mL) | – | – | – | – | C/C(=N\Nc1nc(-c2ccc(C)cc2)cs1)C(=O)O | – |
| > 125 | > 125 | 115 (≈ 31.3 µg/mL) | 3.6 (≈ 0.977 µg/mL) | 57.6 (≈ 15.6 µg/mL) | 115 (≈ 31.3 µg/mL) | – | – | 7.2 (≈ 1.95 µg/mL) | 115 (≈ 31.3 µg/mL) | CCOC(=O)Cc1csc(NN=C(C)CCO)n1 | – |
| > 125 | > 125 | > 125 | > 125 | > 125 | > 125 | – | – | > 125 | > 125 | CCOC(=O)/C(C)=N/Nc1nc(-c2ccccc2)cs1 | – |
| 0.5 (≈ 0.462 µg/mL) | 1.1 (≈ 1.02 µg/mL) | 2.2 (≈ 2.03 µg/mL) | 4.3 (≈ 3.97 µg/mL) | 0.5 (≈ 0.462 µg/mL) | 4.3 (≈ 3.97 µg/mL) | – | – | 1.1 (≈ 1.02 µg/mL) | 2.2 (≈ 2.03 µg/mL) | C[C@@H]1[C@H](O)[C@@H](C)/C=C/C=C/C=C/C=C/C=C/C=C/C=C/[C@H](O[C@@H]2O[C@H](C)[C@@H](O)[C@H](N)[C@@H]2O)C[C@@H]2O[C@](O)(C[C@@H](O)C[C@@H](O)[C@H](O)CC[C@@H](O)C[C@@H](O)CC(=O)O[C@H]1C)C[C@H](O)[C@H]2C(=O)O [AMPHOTERICIN B] | – |
| 3.2 (≈ 0.984 µg/mL) | 3.2 (≈ 0.984 µg/mL) | 3.2 (≈ 0.984 µg/mL) | 1.6 (≈ 0.492 µg/mL) | 6.3 (≈ 1.94 µg/mL) | 0.8 (≈ 0.246 µg/mL) | – | – | 50.8 (≈ 15.6 µg/mL) | 1.6 (≈ 0.492 µg/mL) | C/C(CCC(=O)O)=N\Nc1nc(-c2ccc(F)cc2)cs1 | – |
